Like-named read-outs stand apart in the source and are kept apart here.
What was measured:
LPAR1 = target: T1, LPAR1 (Homo sapiens, UniProt Q92633); assay: Cell calcium flux assay (antagonist mode, LPA at EC80, FLIPR); assay type: cell-based
T1 construct: expressed in transfected cells; host or cells: CHO (CHO-LPA1 cells)
Protocol: • 1) The test compound was diluted to a 400X stock solution with DMSO in a 384-well plate. • 2) 1 µl of compound solution from step 1 was transferred into 39 ul of assay buffer to prepare a 10X working solution in a 384-well plate using a Bravo automated liquid handling platform. • 3) CHO-LPA1 cells were cultured in F12 medium (10% FBS). • 4) When cells reached 80% confluence, the cells were dissociated using 0.25% trypsin-EDTA. • 5) Cell density was determined and the cells were diluted to 4x10e5/ml using F12 (10% FBS). • 6) 30 µl of the cell suspension was dispensed into a 384-well plate (corning 3764#) using a multidrop automated dispenser, resulting in 12,000 cells per well. The plate was incubated at 37°C with 5% CO2 for 18-20 hours. • 7) The medium was replaced with 25 uL of serum-free medium and incubated overnight. • 8) 10 ul of 3.5X loading dye was added to each well of the cell plate. The plate was incubated in the dark at 37°C with 5% CO2 for 0.5-1 hours. • 9) After incubation, 5 µl of the 10X working solution from step 2 was transferred to the cell plate. • 10) The cell plate was incubated in the dark at 25°C for 15 minutes, and then the calcium signals were read. • 11) A 5X agonist (LPA) working solution in 1X HBSS+20 mM HEPES+0.1% BSA was prepared in a 384-well assay plate (greiner 784075#), with at least 20 µl per well. The agonist concentration used in this assay was determined based on the dose-response curve from a prior agonist mode experiment, with the EC80 value serving as the final agonist concentration. • 12) Data were read and saved using FLIPR at room temperature with the specified settings. • 13) The signal values were plotted against compound concentrations, and the curve fitting was performed and the IC50 values were calculated using nonlinear regression analysis in GraphPad Prism software.
IC50 values are represented by grades A, B, C, and D, where A represents 0 < IC50 ≤ 10 nM, B represents 10 nM < IC50 ≤ 50 nM, C represents 50 nM < IC50 ≤ 100 nM, and D represents IC50 > 100 nM. Table 1 Antagonistic activity of the compounds of the present invention against LPAR1

[1] = Pharmacokinetic test in mice; assay type: in vivo, C57 mice; settings: for pharmacokinetic characteristics in mice: conclusion in words; for C0 or Cmax / AUC(0-t) / clearance / Vd / bioavailability: mice, plasma; for AUC(0-t) / clearance / Vd / bioavailability: mouse; for Vd: read-out: Vdss
Protocol: 2.1 Experimental animals: Male C57 mice, 20-25 g, 6 mice/compound, purchased from Chengdu Ddossy Experimental Animals Co., Ltd.
2.2 Experimental design: On the day of the experiment, the C57 mice were randomly grouped according to their body weights. The animals were fasted with water available for 12-14 h one day before the administration, and were fed 4 h after the administration. Table 2. Administration information
Before and after administration, 0.06 mL of blood was taken from the orbit under isoflurane anaesthesia and placed in an EDTAK2 centrifuge tube. The tube was centrifuged at 5000 rpm at 4°C for 10 min, and plasma was collected. The blood collection time points for the intravenous administration group and oral gavage administration group were: 0 min, 5 min, 15 min, 30 min, 1 h, 2 h, 4 h, 6 h, 8 h, and 24 h. Before analysis and detection, all samples were stored at -80°C, and the samples were quantitatively analysed by LC-MS/MS. Table 3. Pharmacokinetic parameters of test compounds in plasma of mice

[2] = Pharmacokinetic test in rats; assay type: in vivo, SD rats; settings: for pharmacokinetic characteristics in rats: conclusion in words; for AUC(0-t) / clearance / Vd / bioavailability: rat; for AUC(0-t) / clearance / Vd / bioavailability / C0 or Cmax: rats, plasma; for Vd: read-out: Vdss
Protocol: 3.1. Experimental animals: Male SD rats, about 220 g, 6-8 weeks old, 6 rats/compound, purchased from Chengdu Ddossy Experimental Animals Co., Ltd.
3.2. Experimental design: On the day of the experiment, the SD rats were randomly grouped according to their body weights. The animals were fasted with water available for 12-14 h one day before the administration, and were fed 4 h after the administration. Table 4. Administration information
Before and after administration, 0.15 mL of blood was taken from the orbit under isoflurane anaesthesia and placed in an EDTAK2 centrifuge tube. The tube was centrifuged at 5000 rpm at 4°C for 10 min, and plasma was collected. Before analysis and detection, all samples were stored at -80°C, and the samples were quantitatively analysed by LC-MS/MS. Table 5. Pharmacokinetic parameters of test compound in plasma of rats

[3] = system: bleomycin (BLM)-induced idiopathic pulmonary fibrosis (IPF); assay: Mouse model of bleomycin (BLM)-induced idiopathic pulmonary fibrosis (IPF); assay type: in vivo, C57BL/6j mice
Text: • 1) Screening and grouping: A total of 48 nine-week-old male C57BL/6j mice (experimental animals) were used in this study. Prior to the start of the experiment, the animals were divided into a sham-operated group (Group 1, 8 mice) and a model group (40 mice) based on their body weights. One week after model establishment, the model group animals were further divided into […] subgroups (Groups 2-6, n = 8 per group) based on their body weights. • 2) Animal model establishment: On day 1 of the experiment, the animals were anesthetised with Zoletil (50 mg/kg) and Xylazine (10 mg/kg). Mice in the model group received an intratracheal (i.t.) injection of bleomycin at a dose of 0.66 mg/kg (1 U/kg) in a volume of 50 µL on day 1. Mice in the sham-operated group (Group 1, […]) received an intratracheal injection of normal saline in a volume of 50 µL. • 3) Mode of administration of test compounds: Starting from day 7 of the experiment, the animals were treated as follows. Group 3: compound 22 was administered by oral gavage at a dose of 1 mg/kg at a volume of 10 mL/kg body weight, twice daily. Group 4: compound 22 was administered by oral gavage at a dose of 3 mg/kg at a volume of 10 mL/kg body weight, twice daily. Group 5: BMS-986278 was administered by oral gavage at a dose of 10 mg/kg at a volume of 10 mL/kg body weight, twice daily. Group 6: nintedanib was administered by oral gavage at a dose of 60 mg/kg at a volume of 10 mL/kg body weight, once daily. Sham-operated group (Group 1) and model group (Group 2): the vehicle was administered by oral gavage at a volume of 10 mL/kg body weight, twice daily. • 4) Test indicators: Lung tissues were collected at the study endpoint for pathological evaluation.

[4] = CHO-LPA1 cells, calcium flux, grades, read-out: LPAR1 IC50
[5] = antagonistic activity against the LPAR1 receptor, read-out: IC50 values
[6] = 1 mg/kg oral gavage twice daily for 14 consecutive days
[7] = 3 mg/kg oral gavage twice daily for 14 consecutive days
[8] = 3 mg/kg oral gavage twice daily for 14 consecutive days, lung tissue at study endpoint

T1 sequence (Q92633 whole entry): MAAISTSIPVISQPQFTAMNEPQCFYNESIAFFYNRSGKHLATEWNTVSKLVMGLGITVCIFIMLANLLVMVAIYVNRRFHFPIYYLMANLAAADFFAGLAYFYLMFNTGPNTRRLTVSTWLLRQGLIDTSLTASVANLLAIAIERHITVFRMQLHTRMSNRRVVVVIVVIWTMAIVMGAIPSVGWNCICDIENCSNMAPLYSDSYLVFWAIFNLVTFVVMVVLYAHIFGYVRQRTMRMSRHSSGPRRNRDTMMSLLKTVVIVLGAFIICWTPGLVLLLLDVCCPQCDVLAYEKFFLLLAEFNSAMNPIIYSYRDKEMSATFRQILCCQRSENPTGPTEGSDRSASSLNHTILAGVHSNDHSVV

| Structure (SMILES) | IC50 (LPAR1; [4]) [nM] | pharmacokinetic characteristics in mice [1] | C0 or Cmax ([1]; i.g. (3 mg/kg)) [ng/mL] | C0 or Cmax ([1]; i.v. (1 mg/kg)) [ng/mL] | AUC(0-t) ([1]; iv, i.v. (1 mg/kg)) [ng·h/mL] | clearance ([1]; iv, i.v. (1 mg/kg)) [mL/min/kg] | Vd ([1]; iv, i.v. (1 mg/kg)) [L/kg] | bioavailability ([1]; po, i.g. (3 mg/kg)) [%] | AUC(0-t) ([1]; po, i.g. (3 mg/kg)) [ng·h/mL] | AUC(0-t) ([2]; iv, i.v. (1 mg/kg)) [ng·h/mL] | clearance ([2]; iv, i.v. (1 mg/kg)) [mL/min/kg] | Vd ([2]; iv, i.v. (1 mg/kg)) [L/kg] | AUC(0-t) ([2]; po, i.g. (3 mg/kg)) [ng·h/mL] | C0 or Cmax ([2]; i.g. (3 mg/kg)) [ng/mL] | C0 or Cmax ([2]; i.v. (1 mg/kg)) [ng/mL] | other results |
| --- | --- | --- | --- | --- | --- | --- | --- | --- | --- | --- | --- | --- | --- | --- | --- | --- |
| C=C1CC(N(C)C(=O)OCc2c(-c3ccc(O[C@H]4CCC[C@H](C(=O)O)C4)c(C)n3)nnn2C)C1 [Compound 4] | < 10 | excellent pharmacokinetic characteristics | 687 ± 331 | 1066 ± 134 | 510 ± 95 | 33.2 ± 5.6 | 5.11 ± 1 | ≥ 98 | 2180 ± 672 |  |  |  |  |  |  | IC50 (LPAR1; [5]): 2 nM |
| Cc1nc(-c2nnn(C)c2COC(=O)N(C)C2CC(=C(F)F)C2)ccc1O[C@H]1CCC[C@H](C(=O)O)C1 (some centres unmarked) [Compound 12] | < 10 | excellent pharmacokinetic characteristics | 581 ± 18 | 1938 ± 258 | 962 ± 131 | 17.5 ± 2.4 | 2.57 ± 0.23 |  | 1450 ± 81 |  |  |  |  |  |  | IC50 (LPAR1; [5]): 2 nM |
| Cc1nc(-c2nnn(C)c2CNC(=O)OC2CC(=C(F)F)C2)ccc1O[C@H]1CCC[C@H](C(=O)O)C1 (some centres unmarked) [Compound 22] | < 10 | excellent pharmacokinetic characteristics | 1788 ± 180 | 1537 ± 290 | 1570 ± 74 | 10.4 ± 0.55 | 2.77 ± 0.16 | ≥ 98 | 5610 ± 1410 | 1790 ± 321 | 9.45 ± 1.7 | 1.21 ± 0.17 | 6710 ± 652 | 1630 ± 162 | 2428 ± 221 | pharmacokinetic characteristics in rats [2]: good pharmacokinetic characteristics; bioavailability ([2]; po, i.g. (3 mg/kg)): ≥ 98%; Modified Ashcroft score compared with the vehicle-treated model group [3, 6]: significantly reduced; fibrotic area in lung tissues compared with the vehicle-treated model group [3, 6]: significantly reduced; Modified Ashcroft score compared with the vehicle-treated model group [3, 7]: significantly reduced; fibrotic area in lung tissues compared with the vehicle-treated model group [3, 7]: significantly reduced; Modified Ashcroft score [3, 8]: less than 4; fibrotic area [3, 8]: less than 20%; efficacy relative to BMS-986278 (10 mg/kg) and nintedanib (60 mg/kg) ([3]; dose of 1 mg/kg): comparable to that of BMS-986278 (10 mg/kg) and nintedanib (60 mg/kg); efficacy relative to BMS-986278 and nintedanib ([3]; dose of 3 mg/kg): superior efficacy to both BMS-986278 and nintedanib |
| C=C1CC(N(C)C(=O)OCc2c(-c3ccc(OCC(C)(C)CC(=O)O)c(C)n3)nnn2C)C1 [Compound 29] | < 10 |  |  |  |  |  |  |  |  | 1090 ± 208 | 15 ± 2.7 | 3.53 ± 1.6 | 2540 ± 679 | 739 ± 29 | 2324 ± 170 | pharmacokinetic characteristics in rats [2]: good pharmacokinetic characteristics |
| Cc1nc(-c2nnn(C)c2COC(=O)N(C)[C@H]2C[C@@H](OC(F)F)C2)ccc1O[C@H]1CCC[C@H](C(=O)O)C1 [Compound 39] | < 10 |  |  |  |  |  |  |  |  |  |  |  |  |  |  |  |
| Cc1nc(-c2nnn(C)c2COC(=O)N(C)[C@H]2C[C@H](OC(F)F)C2)ccc1O[C@H]1CCC[C@H](C(=O)O)C1 [Compound 40] | < 10 |  |  |  |  |  |  |  |  |  |  |  |  |  |  |  |
| Cc1nc(-c2nnn(C)c2CNC(=O)O[C@H]2C[C@@H](OC(F)(F)F)C2)ccc1O[C@H]1CCC[C@H](C(=O)O)C1 [Compound 41] | < 10 |  |  |  |  |  |  |  |  |  |  |  |  |  |  |  |
| Cc1nc(-c2nnn(C)c2CNC(=O)O[C@H]2C[C@H](OC(F)(F)F)C2)ccc1O[C@H]1CCC[C@H](C(=O)O)C1 [Compound 42] | < 10 |  |  |  |  |  |  |  |  |  |  |  |  |  |  |  |
| Cc1nc(-c2nnn(C)c2CNC(=O)OC2CC(=C(F)F)C2)ccc1OCCC1(C(=O)O)CC1 (centres unmarked) [Compound 47] |  | excellent pharmacokinetic characteristics | 566 ± 122 | 1361 ± 179 | 1000 ± 333 | 16.8 ± 5.7 | 5.4 ± 1.4 | 91.3 | 2740 ± 325 | 2850 ± 532 | 5.95 ± 1.2 | 0.825 ± 0.027 | 12600 ± 1320 | 3060 ± 457 | 3233 ± 495 | bioavailability ([2]; po, i.g. (3 mg/kg)): ≥ 98% |

— patent publication EP4775571A1, “LPAR1 ANTAGONIST AND USE THEREOF” (Haisco Pharmaceutical Group Co., Ltd., priority 2023, dated 2025)
